Measured values reported in ChEMBL document CHEMBL6177982, “Structural Optimization of Pyrazole Compounds as Hsp90 Regulators with Enhanced Antitumor Activity” (J Med Chem, 2025).
pIC50, pKd: −log10 of the molar value. Active and inactive are the calls of the source. No cut-off for these calls is given here.

How the values were obtained:
[1] = biological target: Heat shock protein HSP 90-beta/Hsp90 co-chaperone Cdc37 (Homo sapiens) (UniProt P08238+Q16543); experiment: Inhibition of His-tagged HSP90(unknown origin)/GST-tagged CDC37 (unknown origin) protein-protein interaction at 100 uM preincubated with HSP90 for 1 hrs followed by CDC37 addition and measured after 1 hrs by HTRF assay relative to control; format: protein-complex assay
[2] = Permeability of compound at pH 7.4 incubated for 4 hrs by PAMPA based UV analysis; format: ADME; conditions: read-out: permeability
[3] = Stability of compound in simulated gastric fluid at 100 uM incubated for 12 hrs; format: physicochemical; conditions: simulated gi fluid
[4] = Half-life in male Sprague-Dawley rat at 1 mg/kg, iv by LC-MS/MS analysis; format: ADME, organism-based; conditions: in vivo
[5] = Cmax in male Sprague-Dawley rat at 1 mg/kg, iv by LC-MS/MS analysis; format: ADME, organism-based; conditions: in vivo
[6] = Apparent volume of distribution in male Sprague-Dawley rat at 1 mg/kg, iv by LC-MS/MS analysis; format: ADME, organism-based; conditions: in vivo, read-out: Vz
[7] = Clearance in male Sprague-Dawley rat at 1 mg/kg, iv by LC-MS/MS analysis; format: ADME, organism-based; conditions: in vivo
[8] = Half-life in male Sprague-Dawley rat at 5 mg/kg, ip by LC-MS/MS analysis; format: ADME, organism-based; conditions: in vivo
[9] = Cmax in male Sprague-Dawley rat at 5 mg/kg, ip by LC-MS/MS analysis; format: ADME, organism-based; conditions: in vivo
[10] = Apparent volume of distribution in male Sprague-Dawley rat at 5 mg/kg, ip by LC-MS/MS analysis; format: ADME, organism-based; conditions: in vivo
[11] = Clearance in male Sprague-Dawley rat at 5 mg/kg, ip by LC-MS/MS analysis; format: ADME, organism-based; conditions: in vivo
[12] = Bioavailability in male Sprague-Dawley rat at 5 mg/kg, ip by LC-MS/MS analysis; format: ADME, organism-based; conditions: in vivo
[13] = Half-life in male Sprague-Dawley rat at 10 mg/kg, IG by LC-MS/MS analysis; format: ADME, organism-based; conditions: in vivo, po
[14] = AUC (0 to infinity) in male Sprague-Dawley rat at 10 mg/kg, IG by LC-MS/MS analysis; format: ADME, organism-based; conditions: in vivo, po
[15] = Apparent volume of distribution in male Sprague-Dawley rat at 10 mg/kg, IG by LC-MS/MS analysis; format: ADME, organism-based; conditions: in vivo, po
[16] = Clearance in male Sprague-Dawley rat at 10 mg/kg, IG by LC-MS/MS analysis; format: ADME, organism-based; conditions: in vivo, po
[17] = biological target: T1, Heat shock protein HSP90 (Homo sapiens) (UniProt P07900+P08238); experiment: Covalent binding affinity to wildtype His-tagged C-terminal HSP90 (unknown origin) assessed as two phase melting curve at 100 uM incubated for 4 hrs by SYPRO fluorescent dye based thermal shift assay; format: protein assay
[18] = biological target: T2, Heat shock protein HSP 90-alpha (Homo sapiens, UniProt P07900); experiment: Binding affinity to HSP90alpha (unknown origin) assessed as dissociation constant by ITC analysis
[19] = biological target: T2, Heat shock protein HSP 90-alpha; experiment: Binding affinity to His-tagged HSP90alpha (unknown origin) assessed as dissociation constant by SPR analysis
[20] = biological target: T1, Heat shock protein HSP90 (Homo sapiens); experiment: Induction of thermal stabilization of HSP90 in human HCT-116 cells at 10 uM at 53 to 55 degreeC by CETSA based Western blot analysis; format: cell-based
[21] = biological target: T2, Heat shock protein HSP 90-alpha; experiment: Covalent binding affinity to recombinant full-length HSP90alpha (unknown origin) at C598 residue assessed as appearance of compound-modified peptide incubated for 12 hrs by LC-MS/MS analysis
HCT-116 [22] = experiment: Induction of CDK4 degradation in human HCT-116 cells incubated for 24 hrs by Western blot analysis; format: cell-based; conditions: dose 0.1-5 µM
HCT-116 [23] = experiment: Inhibition of Myc-tagged HSP90 (unknown origin)/AKT(unknown origin) protein-protein interaction transfected in human HCT-116 cells at 1 to 5 uM incubated for 12 hrs by co-immunoprecipitation analysis; format: cell-based; conditions: dose 1-5 µM
HCT-116 [24] = experiment: Inhibition of Myc-tagged HSP90 (unknown origin)/CDK4 (unknown origin) protein-protein interaction transfected in human HCT-116 cells at 1 to 5 uM incubated for 12 hrs by co-immunoprecipitation analysis; format: cell-based; conditions: dose 1-5 µM
HCT-116 [25] = experiment: Inhibition of Myc-tagged HSP90 (unknown origin)/HSF1 (unknown origin) protein-protein interaction transfected in human HCT-116 cells at 1 to 5 uM incubated for 12 hrs by co-immunoprecipitation analysis; format: cell-based; conditions: dose 1-5 µM
HCT-116 [26] = experiment: Inhibition of Myc-tagged HSP90 C598A mutant (unknown origin)/HSF1 (unknown origin) protein-protein interaction transfected in human HCT-116 cells at 1 to 5 uM incubated for 12 hrs by co-immunoprecipitation analysis; format: cell-based; conditions: dose 1-5 µM
HT-1080 = experiment: Antiproliferative activity against human HT-1080 cells assessed as inhibition of cell proliferation incubated for 72 hrs by MTT assay; format: functional, cell-based; conditions: HT-1080, 72 h
CT26 = experiment: Antiproliferative activity against mouse CT26 cells assessed as inhibition of cell proliferation incubated for 72 hrs by MTT assay; format: functional, cell-based; conditions: CT26, 72 h
[27] = Toxicity in female Balb/c nude mouse xenografted with human HCT-116 cells assessed as effect on body weight at 5 to 30 mg/kg, ip administered every two days for 14 days; format: organism-based; conditions: in vivo, 336 h, dose 5-30 mg/kg, time 14 day
HCT-116 [28] = experiment: Antitumor activity against human HCT-116 cells xenografted in female Balb/c nude mouse assessed as inhibition of tumor growth at 5 to 30 mg/kg, ip administered every two days for 14 days; format: functional, organism-based; conditions: dose 5-30 mg/kg, time 14.0 day
Mus musculus [29] = experiment: Upregulation of HSP90 protein level in female Balb/c mouse tumor xenografted with human HCT-116 cells at 5 to 30 mg/kg, ip administered every two days for 14 days by Western blot analysis; format: functional, organism-based; conditions: dose 5-30 mg/kg, time 14.0 day
Mus musculus [30] = experiment: Upregulation of HSP70 protein level in female Balb/c mouse tumor xenografted with human HCT-116 cells at 5 to 30 mg/kg, ip administered every two days for 14 days by Western blot analysis; format: functional, organism-based; conditions: dose 5-30 mg/kg, time 14.0 day
[31] = Toxicity in female Balb/c nude mouse xenografted with human HCT-116 cells assessed as effect on liver weight at 5 to 30 mg/kg, ip administered every two days for 14 days; format: organism-based; conditions: in vivo, 336 h, dose 5-30 mg/kg, time 14 day
[32] = Toxicity in female Balb/c nude mouse xenografted with human HCT-116 cells assessed as effect on spleen weight at 5 to 30 mg/kg, ip administered every two days for 14 days; format: organism-based; conditions: in vivo, 336 h, dose 5-30 mg/kg, time 14 day
[33] = Toxicity in female Balb/c nude mouse xenografted with human HCT-116 cells assessed as effect on lung weight at 5 to 30 mg/kg, ip administered every two days for 14 days; format: organism-based; conditions: in vivo, 336 h, dose 5-30 mg/kg, time 14 day
[34] = Toxicity in female Balb/c nude mouse xenografted with human HCT-116 cells assessed as pathological changes in liver at 5 to 30 mg/kg, ip administered every two days for 14 days by H and E staining based analysis; format: organism-based; conditions: in vivo, 336 h, dose 5-30 mg/kg, time 14 day
[35] = Toxicity in female Balb/c nude mouse xenografted with human HCT-116 cells assessed as pathological changes in lung at 5 to 30 mg/kg, ip administered every two days for 14 days by H and E staining based analysis; format: organism-based; conditions: in vivo, 336 h, dose 5-30 mg/kg, time 14 day

inhibition [1]: 92.9%
Papp at 4 h [2]: 42.6 ×10⁻⁶ cm/s
Stability [3]: Stable
half-life [4]: 0.84 h
Cmax [5]: 3680 ng/mL
Vd [6]: 0.86 L/kg
clearance [7]: 11.8 mL/min/kg
half-life [8]: 1.37 h
Cmax [9]: 8350 ng/mL
Vz [10]: 0.97 L/kg
CL/F [11]: 12.2 mL/min/kg
bioavailability [12]: 92.5%
half-life [13]: 2.02 h
AUC(0-inf) [14]: 9810 ng·h/mL
Vz [15]: 3.18 L/kg
CL/F [16]: 18 mL/min/kg
Activity [17]: Active
pKd [18]: 5.40
pKd [19]: 5.86
Activity [20]: Active
Activity [21]: Active
pIC50 (HT-1080): 5.57
pIC50 (CT26): 5.71
SMILES: O=S(=O)(/C=C/c1cn(-c2ccccc2)nc1-c1cccnc1)c1ccccc1
Activity (HCT-116 [22]): Dose-dependent-effect
inhibition (HCT-116 [23]): Active
inhibition (HCT-116 [24]): Active
inhibition (HCT-116 [25]): inactive
inhibition (HCT-116 [26]): inactive
Activity [27]: Non-toxic
Activity (HCT-116 [28]): Active
Activity (Mus musculus [29]): inactive
Activity (Mus musculus [30]): inactive
Activity [31]: Non-toxic
Activity [32]: Non-toxic
Activity [33]: Non-toxic
Activity [34]: Non-toxic
Activity [35]: Non-toxic
